This is an account of results in BindingDB's records for doi:10.1007/bf00168557 (Boehringer Ingelheim Italia, 1995).

For orientation: Ki means the dissociation constant of the complex between target and ligand, obtained from inhibition or displacement. Read a low Ki as higher affinity.

The target of assay [1] is 5-hydroxytryptamine receptor 4 (Rattus norvegicus, UniProt Q62758).
Assay [2] has as its target 5-hydroxytryptamine receptor 1D (Rattus norvegicus, UniProt P28565).
Assay [3] has as its target 5-hydroxytryptamine receptor 1B (Rattus norvegicus, UniProt P28564).
Assay [4] addresses T1, 5-hydroxytryptamine receptor 2C (Rattus norvegicus, UniProt P08909).
T1 sequence (P08909 whole entry): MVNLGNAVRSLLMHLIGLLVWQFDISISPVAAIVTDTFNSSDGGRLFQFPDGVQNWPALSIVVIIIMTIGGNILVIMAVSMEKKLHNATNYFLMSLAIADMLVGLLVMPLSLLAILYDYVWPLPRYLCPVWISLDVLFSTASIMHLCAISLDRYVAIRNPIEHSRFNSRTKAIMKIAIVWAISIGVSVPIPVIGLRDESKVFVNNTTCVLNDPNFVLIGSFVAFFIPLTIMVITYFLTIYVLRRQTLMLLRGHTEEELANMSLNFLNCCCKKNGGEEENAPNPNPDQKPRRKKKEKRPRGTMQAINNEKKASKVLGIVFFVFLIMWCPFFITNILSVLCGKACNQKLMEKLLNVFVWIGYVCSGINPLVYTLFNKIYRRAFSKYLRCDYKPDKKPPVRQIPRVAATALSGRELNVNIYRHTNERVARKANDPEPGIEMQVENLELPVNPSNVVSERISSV

The target of assay [5] is T2, 5-hydroxytryptamine receptor 3A (Rattus norvegicus, UniProt P35563).
T2 sequence (P35563 whole entry): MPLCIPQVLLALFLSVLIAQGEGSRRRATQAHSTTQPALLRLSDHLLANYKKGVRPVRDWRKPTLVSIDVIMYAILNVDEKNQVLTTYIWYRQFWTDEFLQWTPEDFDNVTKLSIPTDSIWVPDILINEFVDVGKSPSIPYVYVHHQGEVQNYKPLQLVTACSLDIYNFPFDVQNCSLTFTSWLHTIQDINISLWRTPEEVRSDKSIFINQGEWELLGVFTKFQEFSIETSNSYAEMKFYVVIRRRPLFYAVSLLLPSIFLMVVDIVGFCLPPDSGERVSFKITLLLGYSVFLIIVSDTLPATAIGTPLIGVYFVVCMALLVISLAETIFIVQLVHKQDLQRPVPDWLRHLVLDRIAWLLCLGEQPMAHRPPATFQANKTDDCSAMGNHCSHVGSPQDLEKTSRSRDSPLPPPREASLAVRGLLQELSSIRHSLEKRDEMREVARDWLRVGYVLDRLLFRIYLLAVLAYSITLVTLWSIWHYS

Assay [6] has as its target T3, 5-hydroxytryptamine receptor 1A (Rattus norvegicus, UniProt P19327).
T3 sequence (P19327 whole entry): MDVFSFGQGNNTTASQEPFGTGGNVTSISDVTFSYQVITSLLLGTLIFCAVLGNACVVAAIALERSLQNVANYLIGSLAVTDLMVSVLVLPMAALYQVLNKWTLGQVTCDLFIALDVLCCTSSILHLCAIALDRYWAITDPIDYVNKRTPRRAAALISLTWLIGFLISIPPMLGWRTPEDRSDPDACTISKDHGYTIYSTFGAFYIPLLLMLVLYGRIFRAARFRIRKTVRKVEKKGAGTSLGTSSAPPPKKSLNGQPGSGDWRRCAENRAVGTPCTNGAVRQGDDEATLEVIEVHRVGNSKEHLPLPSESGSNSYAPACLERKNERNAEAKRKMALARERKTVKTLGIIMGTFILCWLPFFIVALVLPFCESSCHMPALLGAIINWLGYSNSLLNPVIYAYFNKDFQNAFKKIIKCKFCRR

The target of assay [7] is T4, Alpha-1A adrenergic receptor (Rattus norvegicus, UniProt P43140).
T4 sequence (P43140 whole entry): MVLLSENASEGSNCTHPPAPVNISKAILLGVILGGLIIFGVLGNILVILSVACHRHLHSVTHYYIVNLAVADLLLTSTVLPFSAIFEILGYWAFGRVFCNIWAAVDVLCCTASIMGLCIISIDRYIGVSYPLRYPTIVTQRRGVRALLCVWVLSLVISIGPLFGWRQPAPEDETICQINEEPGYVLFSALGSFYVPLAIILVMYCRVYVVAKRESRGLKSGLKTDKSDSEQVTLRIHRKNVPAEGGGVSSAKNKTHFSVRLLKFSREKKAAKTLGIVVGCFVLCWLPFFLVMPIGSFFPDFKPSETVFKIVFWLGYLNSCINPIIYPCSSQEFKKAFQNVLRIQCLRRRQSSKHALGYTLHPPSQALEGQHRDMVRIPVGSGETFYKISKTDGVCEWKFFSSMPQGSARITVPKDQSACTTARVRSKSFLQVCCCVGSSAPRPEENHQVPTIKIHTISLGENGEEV

The structures appear in SMILES notation. Several values for one entry are separate records, joined by “and”; a condition that tells them apart may be missing. Identical values can stand only once.

Chain of 5-hydroxytryptamine receptor 4 (Q62758 whole entry): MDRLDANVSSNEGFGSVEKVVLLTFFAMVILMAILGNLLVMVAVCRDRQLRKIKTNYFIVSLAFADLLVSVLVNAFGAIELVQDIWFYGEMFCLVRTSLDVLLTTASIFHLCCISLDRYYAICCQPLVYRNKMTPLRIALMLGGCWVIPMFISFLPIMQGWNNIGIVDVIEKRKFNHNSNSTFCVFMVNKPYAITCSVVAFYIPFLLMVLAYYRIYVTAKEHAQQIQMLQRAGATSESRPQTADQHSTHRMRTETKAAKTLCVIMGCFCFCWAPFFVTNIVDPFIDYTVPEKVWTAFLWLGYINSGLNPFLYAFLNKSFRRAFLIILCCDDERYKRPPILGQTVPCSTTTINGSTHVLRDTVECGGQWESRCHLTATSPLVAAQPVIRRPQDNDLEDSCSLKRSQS
Chain of 5-hydroxytryptamine receptor 1D (P28565 whole entry): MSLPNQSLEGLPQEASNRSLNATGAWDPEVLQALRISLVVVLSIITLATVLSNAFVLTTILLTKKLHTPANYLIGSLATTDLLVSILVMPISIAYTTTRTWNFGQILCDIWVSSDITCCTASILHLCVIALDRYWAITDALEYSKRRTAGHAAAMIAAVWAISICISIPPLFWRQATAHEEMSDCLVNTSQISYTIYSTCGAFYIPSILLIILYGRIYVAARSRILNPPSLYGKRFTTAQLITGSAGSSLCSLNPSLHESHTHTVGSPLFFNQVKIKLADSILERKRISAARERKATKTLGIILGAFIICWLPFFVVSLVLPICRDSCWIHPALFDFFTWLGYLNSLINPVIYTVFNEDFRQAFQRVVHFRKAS
Chain of 5-hydroxytryptamine receptor 1B (P28564 whole entry): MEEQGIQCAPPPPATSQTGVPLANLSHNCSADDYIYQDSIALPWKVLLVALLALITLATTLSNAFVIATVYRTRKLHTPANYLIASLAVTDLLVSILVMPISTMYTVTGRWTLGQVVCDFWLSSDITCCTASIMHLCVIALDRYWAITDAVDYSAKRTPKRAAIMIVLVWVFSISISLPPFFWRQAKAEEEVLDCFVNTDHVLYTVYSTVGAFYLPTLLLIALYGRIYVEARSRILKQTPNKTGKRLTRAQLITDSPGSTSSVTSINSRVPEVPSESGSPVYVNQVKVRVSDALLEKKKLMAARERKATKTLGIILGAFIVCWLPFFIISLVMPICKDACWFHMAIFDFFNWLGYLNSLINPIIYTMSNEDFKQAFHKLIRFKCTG

On to `O=c1[nH]c2ccccc2n1CCN1CCN(c2ccc(C(F)(F)F)cc2)CC1` [CAS_127941], for which the Ki was more than 10 µM in assay [1]; 2.51 µM in assay [2]; 2.09 µM in assay [3]; 3.98 µM in assay [4]; more than 10 µM in assay [5]; 0.0479 µM and 0.0191 µM in assay [6].

For the compound `O=C1CC2(CCCC2)CC(=O)N1CCCCN1CCN(c2ncccn2)CC1` [BUSPAR], the Ki in assay [1], in assay [2] and in assay [5] was more than 10 µM each time.

With `COc1cccc(OC)c1OCCNCC1Oc2ccccc2OC1c1ccccc1` (centres undefined) [NSC_185453], in assay [7], affinity was put at a Ki of 0.0003 µM.

As to `CCCN(CCC)C1CCc2cccc(O)c2C1` (centres undefined), the Ki in assay [1] and in assay [5] was more than 10 µM throughout.

Turning to `CCn1c(=O)n(C(=O)NC2CC3CCC(C2)N3C)c2ccccc21` (centres undefined) [BIMU 1], in assay [1], the affinity, expressed as Ki, was 0.00019 µM.

Compound `CN1C2CCC1CC(OC(=O)c1cc(Cl)cc(Cl)c1)C2` (centres undefined) [MDL 72222] yielded a Ki in assay [5] of 0.0008 µM.
